Results as given in patent publication US20050209198A1, “Pharmaceutical composition comprising a bisphosphonate and a cox-2 inhibitor for the treatment of bone diseases” (priority 2002, published 2005).

Legend:
[1] = system: patients with postmenopausal osteoporosis; experiment: 24 months trial of iv zoledronic acid, bone mineral density (BMD) by DEXA; assay type: in vivo; settings: bolus iv, dose administration as infrequent as every 6 or 12 months, compared to placebo
Method: (§1) A dose and dose regimen-finding 24 months trial of iv zoledronic acid in patients with postmenopausal osteoporosis is carried out. Three hundred and fifty one patients are randomized to six study arms. […] All patients are evaluated at baseline and in 3-monthly visits. Zoledronic acid or placebo was administered as a bolus iv injection into a peripheral vein over 5 minutes at every visit. Patients from both zoledronic acid treated and placebo groups also receive an oral COX-2 inhibitor (5-methyl-2-(2′-chloro-6′-fluoroanilino)phenylacetic acid—400 mg per day p.o.) or oral placebo.
(§2) Efficacy is ascertained by measurement of percent change from baseline in bone mineral density (BMD) measured by dual energy X-ray absorptiometry (DEXA) as compared to placebo, at 6, 9, and 12 months. Patients also maintain records of pain scores on a once weekly basis and are monitored for pain scores at the 3-monthly visits.
• Placebo • 0.25 mg zoledronic acid every 3 months • 0.5 mg zoledronic acid every 3 months • 1.0 mg zoledronic acid every 3 months • 2.0 mg zoledronic acid every 6 months • 4.0 mg zoledronic acid every 12 months each with 50% COX-2 treatment and 50% oral placebo.

[2] = system: patients with postmenopausal osteoporosis; experiment: Pain scores and general well being in the same trial, oral COX-2 inhibitor vs oral placebo; assay type: in vivo; settings: 400 mg per day p.o. vs oral placebo, on zoledronic acid or placebo background
Method: as §1, §2

| SMILES | bone mineral density (BMD), bone mass change [1] | pain scores and general well being of patients [2] |
| --- | --- | --- |
| O=P(O)(O)C(O)(Cn1ccnc1)P(=O)(O)O [zoledronic acid, 1-hydroxy-2-(imidazol-1-yl)ethane-1,1-diphosphonic acid] | statistically significant and medically relevant bone mass increase | – |
| Cc1ccc(Nc2c(F)cccc2Cl)c(CC(=O)O)c1 [COX-2, 5-methyl-2-(2′-chloro-6′-fluoroanilino)phenylacetic acid] | – | show improvement over the oral placebo treated groups |
